Laboratory results taken from US20240325544A1, “CATIONIC LIPID FOR COVALENT MODIFICATION OF PEPTIDES” (PharmalN Corporation, priority 2023, published 2024).
Square brackets hold non-standard residues; d marks the D form. Peptide text beside a SMILES is read from it. * marks the point of attachment. C18 diacid = O=C(O)CCCCCCCCCCCCCCCCC(=O)*; Palmitoyl = CCCCCCCCCCCCCCCC(=O)*; Dab = NCC[C@H](N)C(=O)O; Dap = NC[C@H](N)C(=O)O; AEEA = NCCOCCOCC(=O)O

Legend:
[1] = test system: Sprague Dawley rats; experiment: Clinically observable adverse effects of cationic alkyl moieties after subcutaneous bolus in rats (Table 1); assay type: in vivo, rat; conditions: tested at 3.0, 5.0 or 10 μmol/kg; for Ataxia** in n = 3: ataxia is bolus dose limiting toxicity; for Swelling and/or Discoloration in n = 3: dose at which sign was seen
Protocol: (§1) Drug administration and observation: Each rat received a subcutaneous injection of a cationic alkyl modifier (SEQ ID NO: 1-22; listed in Table 1 below) in a buffer of sterile water adjusted to a pH between 4.5-5, with an initial bolus dose of 5.0 μmol/kg and an injection volume of 1.0 mL/kg. The bolus dose level was adjusted based on observations, and animals were monitored closely for lethargy, ataxia, swelling, or discoloration during the first 4 hours post-injection and hourly thereafter. As used herein, “ataxia” means a clinical sign observed as poor muscle control that causes clumsy voluntary movements. It may cause difficulty with mobility, coordination, and eye movements. As used herein, “lethargy” means a clinical sign observed as inability or unwillingness to resume normal activity characterized by exploring and alertness. Lethargic rats are easily observed by displaying little to no activity and/or unwillingness to explore around, half closed eyes, and hunched posture. As used herein, “swelling” means a clinical sign observed as the enlargement or engorgement of body parts with blood or fluid and is associated with visible redness (discoloration). If no swelling occurred, dose level was increased to 10 μmol/kg; if swelling was present, bolus dose level was decreased to 3.0 μmol/kg. A wash-out period of 1 week was allowed between bolus doses, and animals were humanely euthanized through CO2 asphyxiation after final observation.

[2] = as above; assay type: in vivo, rat; conditions: male, Sprague-Dawley, rat, in vivo, sc, tested at 3.0, 5.0 or 10 μmol/kg, lethargy is considered maximum tolerated bolus dose, read-out: Lethargy* in n = 3
Protocol: as §1

Compound: CCCCCCCCCCCCCCCC(=O)NCCOCCOCC(=O)NCCOCCOCC(=O)NCCOCCOCC(=O)N[C@@H](CN)C(=O)N[C@@H](CN)C(=O)N[C@@H](CN)C(=O)O [SEQ ID NO: 19, CH3(CH2)14(C═O)-Aeea-Aeea-Aeea-Dap-Dap-Dap] ({Palmitoyl-AEEA-AEEA-AEEA}-[Dap]-[Dap]-[Dap]-OH; C-terminus assumed)
- Ataxia** in n = 3 [1]: >10 µmol/kg
- Swelling and/or Discoloration in n = 3 [1]: >10 µmol/kg
- MTD [2]: > 10 µmol/kg

Compound: CCCCCCCCCCCCCCCC(=O)NCCOCCOCC(=O)NCCOCCOCC(=O)NCCOCCOCC(=O)N[C@@H](CCN)C(=O)N[C@@H](CCN)C(=O)N[C@@H](CCN)C(=O)N[C@@H](CCN)C(=O)O [SEQ ID NO: 8, CH3(CH2)14(C═O)-Aeea-Aeea-Aeea-Dab-Dab-Dab-Dab] ({Palmitoyl-AEEA-AEEA-AEEA}-[Dab][Dab][Dab][Dab]-OH; C-terminus assumed)
- Ataxia** in n = 3 [1]: >5 µmol/kg
- Swelling and/or Discoloration in n = 3 [1]: ≥3 µmol/kg
- MTD [2]: ≥ 3 µmol/kg

Compound: NC[C@H](NC(=O)[C@H](CN)NC(=O)COCCOCCNC(=O)COCCOCCNC(=O)COCCOCCNC(=O)CCCCCCCCCCCCCCCCC(=O)O)C(=O)O [SEQ ID NO: 20, (HOOC)(CH2)16(C═O)-Aeea-Aeea-Aeea-Dap-Dap] ({C18 diacid-AEEA-AEEA-AEEA}-[Dap]-[Dap]-OH; C-terminus assumed)
- Ataxia** in n = 3 [1]: >10 µmol/kg
- Swelling and/or Discoloration in n = 3 [1]: >10 µmol/kg
- MTD [2]: > 10 µmol/kg

Compound: CCCCCCCCCCCCCCCC(=O)NCCOCCOCC(=O)NCCOCCOCC(=O)NCCOCCOCC(=O)N[C@@H](CCN)C(=O)N[C@@H](CCN)C(=O)O [SEQ ID NO: 10, CH3(CH2)14(C═O)-Aeea-Aeea-Aeea-Dab-Dab] ({Palmitoyl-AEEA-AEEA-AEEA}-[Dab]-[Dab]-OH; C-terminus assumed)
- Ataxia** in n = 3 [1]: >10 µmol/kg
- Swelling and/or Discoloration in n = 3 [1]: ≥10 µmol/kg
- MTD [2]: > 10 µmol/kg

Compound: CCCCCCCCCCCCCCCC(=O)NCCOCCOCC(=O)NCCOCCOCC(=O)NCCOCCOCC(=O)N[C@@H](CCN)C(=O)N[C@@H](CN)C(=O)O [SEQ ID NO: 17, CH3(CH2)14(C═O)-Aeea-Aeea-Aeea-Dab-Dap] ({Palmitoyl-AEEA-AEEA-AEEA}-[Dab]-[Dap]-OH; C-terminus assumed)
- Ataxia** in n = 3 [1]: >10 µmol/kg
- Swelling and/or Discoloration in n = 3 [1]: >10 µmol/kg
- MTD [2]: > 10 µmol/kg
